Experimental data taken from paper PMC4868058, “A critical role for the Drosophila dopamine D1-like receptor Dop1R2 at the onset of metamorphosis” (BMC Developmental Biology, 2016).
Structures can show the parent of a compound that is named as a salt.

Key:
[1] = molecular target: T1, Dop1R2 (Drosophila melanogaster, UniProt Q24563); assay: CRE-luciferase reporter assay in transfected HEK293 cells; assay type: cell-based
T1 construct: receptor cDNA in pcDNA1.1, transiently expressed in HEK293 with CRE-luciferase reporter
T1 sequence (Q24563 1-539): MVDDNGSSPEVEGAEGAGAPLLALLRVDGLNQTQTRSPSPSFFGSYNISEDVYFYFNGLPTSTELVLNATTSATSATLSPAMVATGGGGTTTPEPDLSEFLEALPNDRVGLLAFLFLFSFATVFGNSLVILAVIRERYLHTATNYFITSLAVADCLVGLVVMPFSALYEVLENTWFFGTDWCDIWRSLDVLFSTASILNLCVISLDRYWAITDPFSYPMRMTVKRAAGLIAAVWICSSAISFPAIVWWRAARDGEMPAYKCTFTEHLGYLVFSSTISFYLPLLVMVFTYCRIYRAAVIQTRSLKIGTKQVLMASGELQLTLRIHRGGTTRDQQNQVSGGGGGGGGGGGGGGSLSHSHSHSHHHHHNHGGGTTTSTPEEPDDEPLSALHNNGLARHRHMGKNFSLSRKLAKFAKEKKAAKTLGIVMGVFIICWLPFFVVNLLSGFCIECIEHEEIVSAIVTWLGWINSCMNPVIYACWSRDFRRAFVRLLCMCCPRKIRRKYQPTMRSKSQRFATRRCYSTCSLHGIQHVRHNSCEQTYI

[2] = molecular target: T1, Dop1R2; assay: as above; assay type: cell-based; remark: listed apart in the source

EC50 [1]	IC50 [2]	SMILES
270 nM		NCCc1ccc(O)c(O)c1 [dopamine hydrochloride]
	260 nM	OCCN1CCN(CCC=C2c3ccccc3Sc3ccc(C(F)(F)F)cc32)CC1 [flupenthixol dihydrochloride]
